Assay results taken from paper PMC11210812, “Assessment of polymeric mucin–drug interactions” (PLOS ONE, 2024).

Assays:
Assay in all cases: mucin fluorescence quenching, Lineweaver-Burk fit
Format in all cases: binding
MUC5B = biological target: T1, MUC5B (Homo sapiens, UniProt Q9HC84); settings: for Kd (μM) / MUC5B: PBS pH 7.4, 37 °C, unreliable (Kd above highest concentration tested)
T1 construct: native secreted polymeric gel-forming mucin, O-glycosylated, disulfide-linked; purified from human cell culture by two-step CsCl density gradient
Source text: mucin fluorescence quenching, Lineweaver-Burk fit on MUC5B

MUC5AC = biological target: T2, MUC5AC (Homo sapiens, UniProt P98088); settings: for Kd (μM) / MUC5AC: PBS pH 7.4, 37 °C, unreliable (Kd above highest concentration tested)
T2 construct: native secreted polymeric gel-forming mucin, O-glycosylated, disulfide-linked; purified from human cell culture by two-step CsCl density gradient
Source text: mucin fluorescence quenching, Lineweaver-Burk fit on MUC5AC

MUC2 = biological target: T3, MUC2 (Homo sapiens, UniProt Q02817); settings: for Kd (μM) / MUC2: PBS pH 7.4, 37 °C, unreliable (Kd above highest concentration tested)
T3 construct: native secreted polymeric gel-forming mucin, O-glycosylated, disulfide-linked; purified from human cell culture by two-step CsCl density gradient
Source text: mucin fluorescence quenching, Lineweaver-Burk fit on MUC2

SMILES	Kd (MUC5B)	Kd (MUC5AC)	Kd (MUC2)	Kd (μM) / MUC5B (MUC5B; drug 0-200 μM)	Kd (μM) / MUC2 (MUC2; drug 0-200 μM)	also measured
O=c1[nH]cc(F)c(=O)[nH]1 [5-Fluorouracil]	143 ± 17 µM	124 ± 1.5 µM	136 ± 12.1 µM	–	–	–
Cc1cc(=O)n(-c2ccccc2)n1C [Antipyrine]	–	–	–	386.0 ± 49.3 µM	393.1 ± 26.2 µM	Kd (μM) / MUC5AC (MUC5AC; drug 0-200 μM): 302.0 ± 6.7 µM
COC1=CC(=O)C[C@@H](C)[C@]12Oc1c(Cl)c(OC)cc(OC)c1C2=O [Griseofulvin]	–	–	–	–	–	Kd (μM) / MUC5B (MUC5B; drug 0-20 μM): 29.9 ± 5.0 µM; Kd (μM) / MUC5AC (MUC5AC; drug 0-20 μM): 25.4 ± 1.6 µM; Kd (μM) / MUC2 (MUC2; drug 0-20 μM): 45.3 ± 9.6 µM
CC(=O)O[C@H]1C(=O)[C@@]2(C)[C@H]([C@H](OC(=O)c3ccccc3)[C@]3(O)C[C@H](OC(=O)[C@H](O)[C@@H](NC(=O)c4ccccc4)c4ccccc4)C(C)=C1C3(C)C)[C@]1(OC(C)=O)CO[C@@H]1C[C@@H]2O [Paclitaxel]	–	87.6 ± 7 µM	163 ± 39.1 µM	288.0 ± 24.9 µM	–	–
CO[C@H]1/C=C/O[C@@]2(C)Oc3c(C)c(O)c4c(O)c(c(/C=N/N5CCN(C)CC5)c(O)c4c3C2=O)NC(=O)/C(C)=C\C=C\[C@H](C)[C@H](O)[C@@H](C)[C@@H](O)[C@@H](C)[C@H](OC(C)=O)[C@@H]1C [Rifampicin]	–	–	–	–	–	Kd (μM) / MUC5B (MUC5B; drug 0-10 μM): 44.5 ± 7.1 µM; Kd (μM) / MUC5AC (MUC5AC; drug 0-10 μM): 15.0 ± 1.5 µM; Kd (μM) / MUC2 (MUC2; drug 0-10 μM): 49.7 ± 6.2 µM
Cn1c(=O)c2[nH]cnc2n(C)c1=O [Theophylline]	189 ± 7.2 µM	185 ± 5.6 µM	–	–	390.2 ± 46.5 µM	–
